tested on: Kuramochi cells; assay: BrdU Cell Proliferation Assay; format: cell-based; conditions: read-out: BrdU - KURAMOCHI.1: IC50
Method: A BrdU assay was used as a measure of proliferation based on the DNA replication process of proliferating cells. BrdU, a pyrimidine analog, is added to the cell culture and incorporated into the DNA of proliferating cells. The presence of the BrdU analog was then measured through a colorimetric ELISA. After fixation and permeabilization of cells, peroxidase-conjugated antibody recognizing BrdU is added and allowed to incubate, followed by thorough washing to remove unbound antibody. In order to quantify the amount of bound antibody, peroxidase substrate is added and produces a color that can be measured at 450 nm.
On day −1, Kuramochi cells (Sekisui XenoTech JCRB0098) were seeded at 2,000 cells/well in columns 2-12 of a 96 well plate (Corning, CLS3596) in 150 μL media and allowed to adhere overnight at 37 degree with 5% CO2.
On day 0, the source plate was prepared by adding 10 mM compounds and performing 3-fold serial dilutions for a 10-point dose response of each compound. Using a multichannel pipette, 2 μL of the contents of the source plate were stamped into an intermediate plate with 500 μL of RPMI 1640 Media, GlutaMAX Supplement (Life Technologies, 61870127) in each well of a Nunc 96 DeepWell™ plate, non-treated 96 DeepWell plate, 2 mL/well, sterile, natural, 60/cs (Sigma Z717274) and mixed thoroughly. 50 μL from each well of this intermediate plate were added to 4 wells of a 96-well plate with previously seeded Kuramochi cells.
On day 4, the plates were developed using the BrdU ELISA Cell Proliferation Assay according to manufacturer's instructions (Roche, 11647229001). Briefly, BrdU was diluted 1:100 in Gibco®, OptiMEM® and 20 μL/well was added, shaken for 10 minutes at 350 rpm, and then returned to the incubator for 1 hour. Following incubation, the medium was discarded, and the cells were fixed by adding 200 μL of Fix/Denature solution. The anti-BrdU peroxidase antibody was diluted 1:1000 in OptiMEM, added at 100 μL/well, and incubated while shaking (350 rpm) for one hour. Three washes with PBS were performed to remove any unbound antibody, followed by the addition of 100 μL of substrate solution to each well. 25 μL/well of 1M sulfuric acid solution was then added to halt the reaction, and plates were read out using an Envision spectrophotometer (Perkin Elmer) set to read 450 nm absorbance. Background absorbance values from empty wells were subtracted from all samples and then normalized to DMSO treated wells.

`CNC(=O)[C@@H](NC(=O)[C@H]1CN(C(=O)C2CCOCC2)CC12CN(C(=O)[C@H]1CC1(C)C)C2)[C@@H](C)OCc1ccccc1` [I-38B] and `CNC(=O)[C@@H](NC(=O)[C@H]1CN(C(=O)c2cnn(Cc3ccccc3)c2)CC12CN(C(=O)[C@H]1CC1(C)C)C2)[C@@H](C)OCC1CCOCC1` [I-119B] cannot be ordered by IC50: over 10 µM for the first, over 10 µM for the second.

`COC[C@H]1CCCN(C(=O)[C@@H](NC(=O)[C@@H]2CN(C(=O)c3cncs3)CC23CN(S(=O)(=O)C(C)(C)C)C3)[C@@H](C)OCC2CCCCC2)C1` [I-447, (S)-2-(tert-butylsulfonyl)-N-((2S,3R)-3-(cyclohexylmethoxy)-1-((S)-3-(methoxymethyl)piperidin-1-yl)-1-oxobutan-2-yl)-6-(thiazole-5-carbonyl)-2,6-diazaspiro[3.4]octane-8-carboxamide] and `Cc1n[nH]c(C(=O)N2C[C@@H](C(=O)N[C@H](C(=O)N3CCCCC3)[C@@H](C)OCC3CCCCC3)C3(C2)CN(C(=O)[C@H]2CC2(C)C)C3)n1` [I-241] cannot be ordered by IC50: over 10 µM for the first, over 10 µM for the second.

First: CC1(C)C[C@@H]1C(=O)N1CC2(CN(C(=O)c3cnn(Cc4ccccc4)c3)C[C@H]2C(=O)N2CCC[C@@H](OCC3CCCCC3)C2)C1 [I-254]
Second: CC1(C)C[C@@H]1C(=O)N1CC2(CN(C(=O)c3cnn(Cc4ccccc4)c3)C[C@H]2C(=O)N[C@H]2CCCN(C(=O)C3CCCCC3)C2)C1 [I-182]
The IC50 of the first is higher: over 10 µM for the first, 5 to 10 µM for the second. The second is the more potent here.

`CNC(=O)[C@@H](NC(=O)[C@H]1CN(C(=O)c2cnn(Cc3ccccc3)c2)CC12CN(C(=O)C1(F)CC1)C2)[C@@H](C)OCc1ccccc1` [I-71B] and `CNC(=O)[C@@H](NC(=O)[C@H]1CN(C(=O)c2cnn(Cc3ccccc3)c2)CC12CN(C(=O)C1(C)CC1)C2)[C@@H](C)OCc1ccccc1` [I-67B] cannot be ordered by IC50: over 10 µM for the first, over 10 µM for the second.

`CNC(=O)[C@@H](NC(=O)[C@@H]1CN(C(=O)c2cncs2)CC12CN(C(=O)[C@H]1CC1(C)C)C2)[C@@H](C)OCc1ccccc1` [I-24A, (S)—N-((2S,3R)-3-(benzyloxy)-1-(methylamino)-1-oxobutan-2-yl)-2-((S)-2,2-dimethylcyclopropane-1-carbonyl)-6-(thiazole-5-carbonyl)-2,6-diazaspiro[3.4]octane-8-carboxamide] and `CNC(=O)[C@@H](NC(=O)[C@@H]1CN(C(=O)c2ccncc2)CC12CN(C(=O)[C@H]1CC1(C)C)C2)[C@@H](C)OCc1ccccc1` [I-46A] cannot be ordered by IC50: over 10 µM for the first, over 10 µM for the second.

`CNC(=O)[C@@H](NC(=O)[C@@H]1CN(C(=O)c2cnn(Cc3ccccc3)c2)CC12CN(C(=O)[C@H]1CC1(C)C)C2)[C@@H](C)O` [I-88A, (S)-6-(1-benzyl-1H-pyrazole-4-carbonyl)-2-((S)-2,2-dimethylcyclopropane-1-carbonyl)-N-((2S,3R)-3-hydroxy-1-(methylamino)-1-oxobutan-2-yl)-2,6-diazaspiro[3.4]octane-8-carboxamide] and `CNC(=O)[C@@H](NC(=O)[C@H]1CN(C(=O)c2cnn(CC3CCNCC3)c2)CC12CN(C(=O)[C@H]1CC1(C)C)C2)[C@@H](C)OCc1ccccc1` [I-19B] cannot be ordered by IC50: over 10 µM for the first, over 10 µM for the second.

`CNC(=O)[C@@H](NC(=O)[C@H]1CN(Cc2cccnc2)CC12CN(C(=O)[C@H]1CC1(C)C)C2)[C@@H](C)OCc1ccccc1` [I-49B] and `CNC(=O)[C@@H](NC(=O)[C@H]1CN(Cc2cnc[nH]2)CC12CN(C(=O)[C@H]1CC1(C)C)C2)[C@@H](C)OCc1ccccc1` [I-77B] cannot be ordered by IC50: over 10 µM for the first, over 10 µM for the second.

`CNC(=O)[C@@H](NC(=O)[C@H]1CN(C(=O)c2cnn(CC3CCOCC3)c2)CC12CN(C(=O)[C@H]1CC1(C)C)C2)[C@@H](C)OCC1CCCCC1` [I-121B] and `CNC(=O)[C@@H](NC(=O)[C@H]1CN(C(=O)c2scnc2Cl)CC12CN(C(=O)[C@H]1CC1(C)C)C2)[C@@H](C)OCC1CCCCC1` [I-157B] cannot be ordered by IC50: over 10 µM for the first, over 10 µM for the second.

Going from `C[C@@H](OCC1CCC(F)(F)CC1)[C@H](NC(=O)[C@@H]1CN(C(=O)c2cnn(Cc3ccc(F)cc3)c2)CC12CN(C(=O)C1(C(F)(F)F)CC1)C2)C(=O)N1CCC(F)(F)CC1` [I-190A] to `C[C@@H](OCC1CCC(F)(F)CC1)[C@H](NC(=O)[C@H]1CN(C(=O)c2cn[nH]c2)CC12CN(C(=O)C1(C(F)(F)F)CC1)C2)C(=O)N1CCC(F)(F)CC1` [I-188B], the IC50 rises from at most 0.5 µM to over 10 µM. The first is the more potent here.

`CNC(=O)[C@@H](NC(=O)[C@@H]1CN(C(=O)c2cnn(CC(F)(F)F)c2)CC12CN(C(=O)CC1CC1)C2)[C@@H](C)OCc1ccccc1` [I-43A] and `CNC(=O)[C@@H](NC(=O)[C@H]1CN(C(=O)c2cnn(CC3CC3)c2)CC12CN(C(=O)CC1CC1)C2)[C@@H](C)OCc1ccccc1` [I-53B] cannot be ordered by IC50: over 10 µM for the first, over 10 µM for the second.

`CNC(=O)[C@@H](NC(=O)[C@@H]1CN(C(=O)c2cnn(Cc3ccccc3)c2)CC12CN(C(=O)C(C)C)C2)[C@@H](C)OCc1ccccc1` [I-54A] and `CNC(=O)[C@@H](NC(=O)[C@H]1CN(C(=O)c2cnn(Cc3ccccc3)c2)CC12CN(C(=O)C(C)(C)F)C2)[C@@H](C)OCc1ccccc1` [I-90B] cannot be ordered by IC50: over 10 µM for the first, over 10 µM for the second.

`CNC(=O)[C@@H](NC(=O)[C@@H]1CN(C(=O)c2cnn(Cc3ccccc3)c2)CC12CN(C(=O)C1(C3CC3)CC1)C2)[C@@H](C)OCc1ccccc1` [I-114A] and `CCCC(=O)N1CC2(C1)CN(C(=O)c1cnn(Cc3ccccc3)c1)C[C@H]2C(=O)N[C@H](C(=O)NC)[C@@H](C)OCc1ccccc1` [I-60A] cannot be ordered by IC50: over 10 µM for the first, over 10 µM for the second.

`CNC(=O)[C@H](COCc1ccccc1)NC(=O)[C@H]1CN(C(=O)c2cnn(Cc3ccccc3)c2)CC12CN(C(=O)C(C)(C)C)C2` [I-100B] and `CNC(=O)[C@@H](NC(=O)[C@@H]1CN(C(=O)c2cnn(Cc3ccccc3)c2)CC12CN(C(=O)[C@H]1CC1(C)C)C2)C(C)(C)S(=O)(=O)Cc1ccccc1` [I-199, (S)-6-(1-benzyl-1H-pyrazole-4-carbonyl)-N—((R)-3-(benzylsulfonyl)-3-methyl-1-(methylamino)-1-oxobutan-2-yl)-2-((S)-2,2-dimethylcyclopropane-1-carbonyl)-2,6-diazaspiro[3.4]octane-8-carboxamide] cannot be ordered by IC50: over 10 µM for the first, over 10 µM for the second.

First: C[C@@H](OCC1CCCCC1)[C@H](NC(=O)[C@H]1CN(C(=O)c2cn[nH]c2)CC12CN(C(=O)[C@H]1CC1(C)C)C2)C(=O)N1CCC(F)(F)CC1 [I-154B]
Second: CNC(=O)[C@@H](NC(=O)[C@@H]1CN(C(=O)c2scnc2C)CC12CN(C(=O)[C@H]1CC1(C)C)C2)[C@@H](C)OCC1CCCCC1 [I-160A]
The IC50 of the first is higher: over 10 µM for the first, 0.5 to 5 µM for the second.

`C[C@@H](OCc1ccccc1)[C@H](NC(=O)C1CN(C(=O)c2cnn(Cc3ccccc3)c2)CC12CN(C(=O)[C@H]1CC1(C)C)C2)C(=O)NCCO` (some centres unmarked) [I-30] and `CC1(C)C[C@@H]1C(=O)N1CC2(CN(C(=O)c3cnn(Cc4ccccc4)c3)C[C@H]2C(=O)NCCOCc2ccccc2)C1` [I-96A] cannot be ordered by IC50: over 10 µM for the first, over 10 µM for the second.

`CNC(=O)[C@@H](NC(=O)[C@@H]1CN(C(=O)c2n[nH]c3ccccc23)CC12CN(C(=O)[C@H]1CC1(C)C)C2)[C@@H](C)OCc1ccccc1` [I-112A] and `CNC(=O)[C@@H](NC(=O)[C@@H]1CN(S(=O)(=O)c2cnn(Cc3ccccc3)c2)CC12CN(C(=O)[C@H]1CC1(C)C)C2)[C@@H](C)OCc1ccccc1` [I-79A] cannot be ordered by IC50: over 10 µM for the first, over 10 µM for the second.

`COCCNC(=O)[C@@H]1CN(C(=O)c2cnn(Cc3ccccc3)c2)CC12CN(C(=O)[C@H]1CC1(C)C)C2` [I-122A] and `COc1cccc(CNC(=O)[C@@H]2CN(C(=O)c3cnn(Cc4ccccc4)c3)CC23CN(C(=O)[C@H]2CC2(C)C)C3)n1` [I-126A] cannot be ordered by IC50: over 10 µM for the first, over 10 µM for the second.

Compared with `CC1(C)C[C@@H]1C(=O)N1CC2(CN(C(=O)c3cnn(Cc4ccccc4)c3)C[C@@H]2C(=O)Nc2ccc(Cc3ccccc3)cc2)C1` [I-84B], `CC1(C)C[C@@H]1C(=O)N1CC2(CN(C(=O)c3cnn(Cc4ccccc4)c3)C[C@H]2C(=O)N2CCO[C@H](Cc3ccccc3)C2)C1` [I-255] is higher in IC50: 5 to 10 µM for the first, over 10 µM for the second. The first is the more potent here.

Compared with `C[C@@H](OCC1CCCCC1)[C@H](NC(=O)[C@@H]1CN(C(=O)c2cnn(Cc3ccccc3)c2)CC12CN(C(=O)[C@H]1CC1(C)C)C2)C(N)=O` [I-200], `C[C@@H](OCC1CCCCC1)[C@H](NC(=O)[C@@H]1CN(C(=O)c2cnn(Cc3ccccc3)c2)CC12CN(C(=O)[C@H]1CC1(C)C)C2)C(=O)N1CC(CN)C1` [I-239] is higher in IC50: 0.5 to 5 µM for the first, over 10 µM for the second. The first is the more potent here.

Compared with `COCC1CCCN(C(=O)[C@@H](NC(=O)C2CN(C(=O)c3cnn(Cc4ccccc4)c3)CC23CN(C(=O)[C@H]2CC2(C)C)C3)[C@@H](C)OCc2ccccc2)C1` (some centres unmarked) [I-64], `CC1(C)C[C@@H]1C(=O)N1CC2(CN(C(=O)c3cnn(Cc4ccccc4)c3)C[C@H]2C(=O)N[C@H]2CCCN(C(=O)c3ccccc3)C2)C1` [I-83A] is higher in IC50: 0.5 to 5 µM for the first, over 10 µM for the second.

In the case of `C[C@@H](OCC1CCCCC1)[C@H](NC(=O)[C@@H]1CN(C(=O)c2cnn(Cc3ccccc3)c2)CC12CN(C(=O)[C@H]1CC1(C)C)C2)C(=O)N1CCC[C@@H]1CN` [I-238], the IC50 is reported as over 10 µM.
